Test results reported in patent publication US12558349B2, “Methods of treating infections in overweight and obese patients using antibiotics” (MELINTA SUBSIDIARY CORP., priority 2013, dated 2026).
Where two headings read alike, the source gives them in different places.

Assays:
[1] = system: Acute Bacterial Skin and Skin Structure Infections (ABSSSI); assay: Phase 2b clinical trial: Objective Endpoint at 48 to 72 hours (cessation of lesion spread and absence or resolution of fever); type: in vivo, human; details: comparators with and without aztreonam; for Percent Cessation of Spread of Erythema and Absence of Fever at 48 to 72 Hours: secondary endpoint
[2] = human, in vivo
[3] = system: Acute Bacterial Skin and Skin Structure Infections (ABSSSI); assay: Phase 2b clinical trial in ABSSSI: Investigators' Global Assessment of Cure; type: in vivo, human; details: for Response Rate, Investigators' Global Assessment of Cure: ITT; for Response Rate, Investigators' Global Assessment of Cure / Percent Clinical Cure (ITT): delafloxacin 300 mg BID, Zyvox 600 mg BID, vancomycin 1,000 to 2,000 mg BID, comparators with and without aztreonam; for Percent Clinical Cure (ITT): Investigators' Global Assessment of Cure; for Clinical activity with increased patient weight: Phase 2b data by weight/BMI
Text: (§1) The term “cure” or “Investigators' Global Assessment of Cure” as used herein refers to complete resolution of all signs and symptoms at the follow-up visit.

[4] = Phase 2b clinical trial: adverse events; details: for Overall adverse event rates: across the Phase 2b study; for Specific limiting toxicity: human, in vivo
Confirmed MRSA = assay: Phase 2b clinical trial: Investigators' Global Assessment of Cure in Patients with Confirmed MRSA; type: in vivo, human; details: comparators with and without aztreonam; for Response Rate, Investigators' Global Assessment of Cure in Patients with Confirmed MRSA: MITT; for Percent Clinical Cure (MITT): patients with confirmed MRSA
Text: as §1

[5] = system: Acute Bacterial Skin and Skin Structure Infections (ABSSSI); assay: Phase 2b clinical trial: reduction in the size of the lesion at 48 to 72 hours; type: in vivo, human

Compound | Response Rate, Objective Endpoint at 48 to 72 hours [1] | Percent Cessation of Spread of Erythema and Absence of Fever at 48 to 72 Hours [1] [%] | Response Rate, Investigators' Global Assessment of Cure [3] | Percent Clinical Cure (ITT) [3] [%] | Clinical activity with increased patient weight [3] | Leading adverse event ([4]; Phase 2b study) | Most common specific adverse event ([4]; Phase 2b study) | Overall adverse event rates [4] [%] | Response Rate, Investigators' Global Assessment of Cure in Patients with Confirmed MRSA (Confirmed MRSA) | Percent Clinical Cure (MITT) (Confirmed MRSA) [%] | Specific limiting toxicity [4] | further results
CN[C@H](CC(C)C)C(=O)N[C@H]1C(=O)N[C@@H](CC(N)=O)C(=O)N[C@H]2C(=O)N[C@H]3C(=O)N[C@H](C(=O)N[C@H](C(=O)O)c4cc(O)cc(O)c4-c4cc3ccc4O)[C@H](O)c3ccc(c(Cl)c3)Oc3cc2cc(c3O[C@@H]2O[C@H](CO)[C@@H](O)[C@H](O)[C@H]2O[C@H]2C[C@](C)(N)[C@H](O)[C@H](C)O2)Oc2ccc(cc2Cl)[C@H]1O [Vancomycin] | 69/95 | 72.6 | 53/98 | 54.1 | decline | disorders of the skin | pruritus | 65 | 21/32 | 65.6 |  | Percent Cessation of Spread of Erythema and Absence of Fever at 48 to 72 Hours ([1]; listed as vancomycin): ~73%; Specific limiting toxicity [2]: kidney; Patients who experienced renal issues ([4]; Phase 2b study arm): three; Renal failures ([4]; Phase 2b study arm, among the renal issues): two
Nc1nc(-n2cc(C(=O)O)c(=O)c3cc(F)c(N4CC(O)C4)c(Cl)c32)c(F)cc1F [Delafloxacin, 1-(6-amino-3,5-difluoro-2-pyridinyl)-8-chloro-6-fluoro-1,4-dihydro-7-(3-hydroxy-1-azetidinyl)-4-oxo-3-quinolinecarboxylic acid] | 61/78 | 78.2 | 57/81 | 70.4 | maintained | gastrointestinal, or GI, disorder | mild to moderate diarrhea | 74 | 19/29 | 65.56 | no specific limiting toxicity | Percent Cessation of Spread of Erythema and Absence of Fever at 48 to 72 Hours ([1]; listed as delafloxacin): approximately 78%; Percentage of patients with a 30% or greater reduction in the size of the lesion, versus comparators [5]: greater percentage of patients; Efficacy compared to vancomycin, primary endpoint Investigators' Global Assessment of Cure ([3]; 95% Confidence Interval −30.3%, −2.3%, p=0.031): statistically significant efficacy advantage; Evidence for toxicities common in the fluoroquinolone class (phototoxicity, elevated liver enzymes, dysglycemia, QT prolongation) ([4]; Phase 2b study): did not demonstrate evidence
CC(=O)NC[C@H]1CN(c2ccc(N3CCOCC3)c(F)c2)C(=O)O1 [Zyvox, N-[[(5S)-3-[3-fluoro-4-(4-morpholinyl)phenyl]-2-oxo-5-oxazolidinyl]methyl]acetamide] | 56/75 | 74.7 | 50/77 | 84.9 | decline | GI disorder | nausea | 72 | 21/34 | 61.8 | bone marrow | Percent Cessation of Spread of Erythema and Absence of Fever at 48 to 72 Hours ([1]; listed as linezolid): ~75%; Subjects who experienced thrombocytopenia ([4]; Phase 2b study arm): two
